Values quoted from earlier work as cited in patent publication US20230338402A1, “TREATMENT REGIMEN FOR CANCER USING IMMUNOMODULATION” (BioXcel Therapeutics, Inc., priority 2020, published 2023).
Counter-ions that a name gives are not always drawn.

Columns and labels:
[1] = molecular target: CYP2C9 (Homo sapiens, UniProt P11712)
[2] = molecular target: CYP2C19 (Homo sapiens, UniProt P33261)
[3] = molecular target: CYP3A4 (Homo sapiens, UniProt P08684)
[4] = test system: CYP3A4
[5] = molecular target: T1, CYP2C8 (Homo sapiens, UniProt P10632)
T1 sequence (P10632 1-490): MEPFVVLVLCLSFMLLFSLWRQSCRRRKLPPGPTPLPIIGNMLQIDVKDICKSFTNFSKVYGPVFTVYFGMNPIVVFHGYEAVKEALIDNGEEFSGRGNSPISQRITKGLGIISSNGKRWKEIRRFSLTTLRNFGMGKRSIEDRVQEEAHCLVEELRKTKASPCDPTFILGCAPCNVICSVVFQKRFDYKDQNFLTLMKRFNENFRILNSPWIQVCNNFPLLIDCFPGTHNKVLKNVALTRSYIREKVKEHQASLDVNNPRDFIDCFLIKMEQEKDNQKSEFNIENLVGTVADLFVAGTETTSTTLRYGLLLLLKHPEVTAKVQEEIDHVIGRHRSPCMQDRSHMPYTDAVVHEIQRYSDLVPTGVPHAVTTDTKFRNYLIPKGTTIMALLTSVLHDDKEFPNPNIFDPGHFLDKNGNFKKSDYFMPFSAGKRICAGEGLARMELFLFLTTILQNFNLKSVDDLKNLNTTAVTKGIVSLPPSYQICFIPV

[6] = molecular target: T2, CYP1A2 (Homo sapiens, UniProt P05177); conditions: human liver CYP isoenzymes, preclinical studies
T2 sequence (P05177 1-516): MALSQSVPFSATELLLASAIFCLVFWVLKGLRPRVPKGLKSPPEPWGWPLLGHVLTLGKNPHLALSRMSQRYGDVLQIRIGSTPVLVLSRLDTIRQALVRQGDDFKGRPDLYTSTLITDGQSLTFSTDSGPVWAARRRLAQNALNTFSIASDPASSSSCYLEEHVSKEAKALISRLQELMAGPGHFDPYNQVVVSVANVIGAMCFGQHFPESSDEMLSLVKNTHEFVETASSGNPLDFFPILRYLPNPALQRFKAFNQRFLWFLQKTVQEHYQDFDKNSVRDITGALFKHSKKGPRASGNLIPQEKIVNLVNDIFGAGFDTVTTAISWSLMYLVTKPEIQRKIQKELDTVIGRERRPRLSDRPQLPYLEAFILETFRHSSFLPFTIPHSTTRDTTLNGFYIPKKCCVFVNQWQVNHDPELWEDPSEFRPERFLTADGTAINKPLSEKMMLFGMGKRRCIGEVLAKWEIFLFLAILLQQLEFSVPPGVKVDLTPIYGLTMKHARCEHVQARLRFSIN

[7] = test system: CYP1A2
[8] = molecular target: CYP2D6 (Homo sapiens, UniProt P10635)
[9] = test system: melanoma; conditions: melanoma patients

Sequence of CYP2D6 (P10635 whole entry): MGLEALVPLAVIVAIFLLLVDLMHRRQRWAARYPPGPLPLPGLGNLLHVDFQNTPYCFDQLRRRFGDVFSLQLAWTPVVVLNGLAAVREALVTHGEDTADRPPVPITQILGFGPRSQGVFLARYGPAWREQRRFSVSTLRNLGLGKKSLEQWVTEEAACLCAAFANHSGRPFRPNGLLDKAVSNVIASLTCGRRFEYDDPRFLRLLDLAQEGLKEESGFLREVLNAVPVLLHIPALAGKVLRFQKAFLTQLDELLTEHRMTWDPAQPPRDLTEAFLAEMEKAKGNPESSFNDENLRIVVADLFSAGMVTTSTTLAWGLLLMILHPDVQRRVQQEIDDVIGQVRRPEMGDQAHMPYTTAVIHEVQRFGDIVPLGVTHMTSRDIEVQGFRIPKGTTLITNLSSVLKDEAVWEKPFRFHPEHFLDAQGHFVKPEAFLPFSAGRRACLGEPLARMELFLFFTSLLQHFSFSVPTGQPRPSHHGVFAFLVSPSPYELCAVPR
Sequence of CYP2C19 (P33261 whole entry): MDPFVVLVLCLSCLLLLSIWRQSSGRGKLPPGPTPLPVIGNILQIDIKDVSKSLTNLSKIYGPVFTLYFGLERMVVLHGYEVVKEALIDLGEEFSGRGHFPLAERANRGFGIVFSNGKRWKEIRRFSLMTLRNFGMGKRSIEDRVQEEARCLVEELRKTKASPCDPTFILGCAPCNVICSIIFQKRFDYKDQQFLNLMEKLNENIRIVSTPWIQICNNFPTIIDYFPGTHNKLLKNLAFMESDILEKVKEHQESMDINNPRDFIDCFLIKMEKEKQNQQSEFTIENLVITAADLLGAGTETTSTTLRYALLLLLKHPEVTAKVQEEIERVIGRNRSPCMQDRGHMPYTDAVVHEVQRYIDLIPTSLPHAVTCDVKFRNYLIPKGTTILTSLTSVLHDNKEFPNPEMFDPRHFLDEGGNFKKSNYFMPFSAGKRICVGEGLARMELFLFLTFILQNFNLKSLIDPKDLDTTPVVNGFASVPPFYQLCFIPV
Sequence of CYP3A4 (Homo sapiens, UniProt P08684) (P08684 whole entry): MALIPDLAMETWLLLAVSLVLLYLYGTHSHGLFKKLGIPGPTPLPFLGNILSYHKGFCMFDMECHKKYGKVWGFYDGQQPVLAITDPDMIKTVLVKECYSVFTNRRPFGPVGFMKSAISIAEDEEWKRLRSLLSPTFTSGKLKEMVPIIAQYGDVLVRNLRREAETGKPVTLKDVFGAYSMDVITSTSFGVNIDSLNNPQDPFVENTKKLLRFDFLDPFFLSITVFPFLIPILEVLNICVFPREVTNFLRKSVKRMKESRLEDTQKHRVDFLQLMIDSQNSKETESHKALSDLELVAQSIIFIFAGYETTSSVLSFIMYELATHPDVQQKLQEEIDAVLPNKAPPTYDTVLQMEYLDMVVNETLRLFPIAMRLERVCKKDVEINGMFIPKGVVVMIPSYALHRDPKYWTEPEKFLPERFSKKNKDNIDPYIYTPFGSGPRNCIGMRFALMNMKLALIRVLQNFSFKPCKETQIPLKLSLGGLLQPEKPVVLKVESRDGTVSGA
Sequence of CYP2C9 (P11712 whole entry): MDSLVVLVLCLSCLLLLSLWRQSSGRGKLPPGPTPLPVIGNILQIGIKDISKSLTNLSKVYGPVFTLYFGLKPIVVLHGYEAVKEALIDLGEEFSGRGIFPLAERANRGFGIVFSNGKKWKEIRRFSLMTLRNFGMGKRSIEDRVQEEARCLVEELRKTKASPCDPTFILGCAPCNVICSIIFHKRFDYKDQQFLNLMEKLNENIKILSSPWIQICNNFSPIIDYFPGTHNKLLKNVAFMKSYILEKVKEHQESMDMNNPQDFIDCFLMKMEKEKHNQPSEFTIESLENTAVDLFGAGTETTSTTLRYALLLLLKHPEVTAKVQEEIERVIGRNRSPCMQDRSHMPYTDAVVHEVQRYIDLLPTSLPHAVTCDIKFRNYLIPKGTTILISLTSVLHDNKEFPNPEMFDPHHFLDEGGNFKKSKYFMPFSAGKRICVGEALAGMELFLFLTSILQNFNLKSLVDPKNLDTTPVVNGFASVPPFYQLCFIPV

Row | Compound | Potential to inhibit CYP2C9 [1] | Potential to inhibit CYP2C19 [2] | Potential to inhibit CYP3A4 [3] | Induction of CYP3A4 [4] | Potential to inhibit CYP2C8 [5] | Potential to inhibit CYP1A2 [6] | Induction of CYP1A2 [7] | Potential to inhibit CYP2D6 [8] | Response rate [9] [%]
1 | CC(C)[C@H](N)C(=O)N1CCC[C@H]1B(O)O [Talabostat mesylate, [(2R)-1-[(2S)-2-amino-3-methylbutanoyl]pyrrolidin-2-yl]boronic acid] | low potential | low potential | low potential | did not induce | low potential | low potential | did not induce | low potential | 
2 | Ipilimumab: CTLA-4 antagonist, immune checkpoint inhibitor antibody |  |  |  |  |  |  |  |  | 11
3 | Nivolumab: PD-1 antagonist, immune checkpoint inhibitor antibody |  |  |  |  |  |  |  |  | 32
